Publication PMC6100512, “In-Vitro Activity of Silybin and Related Flavonolignans against Leishmania infantum and L. donovani” (Molecules : A Journal of Synthetic Chemistry and Natural …, 2018)

What was measured:
[1] = tested on: intracellular amastigotes of Li BCN150; test: Activity against intracellular amastigotes ex vivo in mouse peritoneal Mφ; format: cell-based, Leishmania infantum; conditions: 24 h
Protocol: (§1) Antiproliferative activity of flavonolignans against intracellular amastigotes was determined ex vivo using mouse peritoneal Mφ. Infections were carried out following the method and modifications described by us. Briefly, Mφ were seeded onto 8-well cell culture slides (SLP, Lifesciences Co., Pocheon, Korea) in a final volume of 400 µL (2.5 × 10^4 Mφ/well). Plates were incubated overnight at 37 °C under humidified 5% CO2/95% air atmosphere to facilitate adherence. Stationary-phase promastigotes of Ld and Li were centrifuged (370× g, 10 min) without break in a Ficoll (Sigma, Saint Louis, MO, USA) gradient (0%, 10% in Medium 199 and 30% in sterile phosphate-buffered saline). Metacyclic promastigotes, located in the 10–30% Ficoll interphase, were recovered, washed and opsonized in 15% normal mouse serum in 1:1 solution of RPMI and HBSS medium (Gibco, Life Technologies, Paisley, UK), 0.15 mM CaCl2 and 1 mM MgCl2 at 37 °C, 5% CO2 atmosphere for 30 min. Purified metacyclic promastigotes were added to the Mφ cultures using a ratio 4:1 (promastigotes:Mφ) for Li and 10:1 for Ld. Plates were incubated at 33 °C overnight as above. Noninternalized promastigotes were eliminated by repeated washing with fresh medium. Treatments (10 µM) were added to the cultures and kept for 24 h. Slides were methanol-fixed and stained with May–Grünwald Giemsa (Merck) to determine the % of infection and the number of amastigotes/100 Mφ under microscope. Cultures untreated, treated with 0.05% DMSO and treated with 0.1 µM AmB were included as controls. Experiments were done in triplicate and the activity was expressed as % of inhibition compared to untreated cultures.

[2] = tested on: intracellular amastigotes of Ld; test: as above; format: cell-based, L. donovani; conditions: 24 h
Protocol: as §1, with “Slides were methanol-fixed and stained with May–Grünwald Giemsa (Merck) to determine the % of infection and the number of amastigotes/100 Mφ under microscope. Cultures untreated, treated with 0.05% DMSO and treated with 0.1 µM AmB were included as controls.” left out

Li UCM9 promastigotes = test: Multiplication of Li promastigotes in vitro (CellTiter-Glo, 24 h); format: cell-based, Leishmania infantum; conditions: for inhibition of growth at 120 µM: compared to untreated cultures, mean ± SD, read-out: Reduction (%) of multiplication, L infantum promastigotes
Protocol: (§2) Growth was estimated by the addition of CellTiter-Glo® (Promega, Madison, WI, USA) (1:1) in 96-well microtiter white plates (Costar, Corning). After 10 min incubation (light protected, room temperature), luminescence was determined with FLUOstar Omega (BMG Labtech) reader. Sensitivity of Ld was similarly performed with promastigotes exposed to 120 μM. Control cultures (medium, untreated promastigotes, promastigotes treated with 0.2 μM AmB) were included. Experiment was carried out in triplicate and results expressed as % of inhibition of untreated control. Approximate IC50 values of the flavonolignans showing the highest inhibitory activity against Li mid-log-phase promastigotes were determined using dose-response curves. […] The compound with the highest activity, DhiS-A, was assayed against Ld promastigotes using the latter dilution series and the same culture conditions as above. For comparative purposes, mid-log promastigotes of Li and Ld were exposed to established anti-Leishmania agents: AmB (0.0078 μ[…] and 1.0 μM); […]

[3] = tested on: BALB/c mouse peritoneal macrophages, Mφ; test: Toxicity of flavonolignans for macrophages (CellTiter-Glo); format: cell-based; conditions: Peritoneal macrophage, 24 h, 28.125 to 900 µM, approximate
Protocol: Toxicity of flavonolignans for mammalian cells was determined using mouse peritoneal Mφ. Cells obtained were counted and seeded onto 96-well cultures plates (Costar, Corning) at a final concentration of 5 × 10^4 Mφ/well (100 µL/well). Plates were incubated overnight at 37 °C and humidified 5% CO2/95% air to facilitate adherence. Cells were cultured as above for 24 h with different concentrations of the flavonolignans (28.125 µM, 56.25 µM, 112.5 µM, 225 µM, 450 µM and 900 µM). After incubation, cell viability was determined with CellTiter-Glo® as previously described. Untreated and 300 µM AmB-treated control wells were included. Experiments were done in triplicate and approximate IC50 determined.

Ld promastigotes = test: Multiplication of Ld promastigotes in vitro (CellTiter-Glo, 24 h); format: cell-based, L. donovani; conditions: Leishmania donovani; for inhibition of growth at 120 µM: compared to untreated cultures, mean ± SD, read-out: Reduction (%) of multiplication, L. donovani promastigotes
Protocol: as §2

Li promastigotes = test: Drug combination with DhiS-A, Chou-Talalay method (CalcuSyn); format: cell-based, Leishmania infantum; conditions: for DRI of DhiS-A in combination with AmB / Dose Required of DhiS-A in combination with AmB: AmB:DhiS-A 0.01:15; for Dose Required of DhiS-A in combination with AmB / Dose Required of DhiS-A in combination with PMM / Dose Required of DhiS-A in combination with Sb^III: computer-simulated; for DRI of DhiS-A in combination with PMM / Dose Required of DhiS-A in combination with PMM: PMM:DhiS-A 5:1; for DRI of DhiS-A in combination with Sb^III / Dose Required of DhiS-A in combination with Sb^III: Sb^III:DhiS-A 1:1
Protocol: Fixed-combination ratios of drugs were based on the IC50 values determined for the individual molecules. Mid-log-phase promastigotes of Li were exposed for 24 h at constant ratios of 0.01:15 (AmB:DhiS-A), 1:1 (Sb^III:DhiS-A) and 5:1 (PMM:DhiS-A). Dose–response curves of the combinations were analyzed with the Chou–Talalay method, based on the theorem of combination index (CI)-isobologram and CalcuSyn software. This method allows the evaluation of the type of interaction between two molecules according to mass action law. Results can be used to determine quantitatively the synergy (CI < 1), additive effect (CI = 1) or antagonism (CI > 1) of combinations. Moreover, the program allows the calculation of the drug reduction index (DRI): dose reduction in drug combinations to reach a given inhibition compared to the activity of the individual drugs.

amastigotes of L. major = tested on: amastigotes of L. major; parameters: method as in PMID 29716183; conditions: cited from earlier work
L. major promastigotes = tested on: L. major promastigotes; parameters: method as in PMID 29716183; conditions: 12.5 µM; cited from earlier work

With `COc1cc([C@H]2Oc3ccc(-c4oc5cc(O)cc(O)c5c(=O)c4O)cc3O[C@@H]2CO)ccc1O` [Dehydroisosilybin A, dehydroisosilybin A] the “Antileishmanial activity on intracellular amastigotes (in words)” value (from here on “Antileishmanial activity”) ([1]; 10 µM) was “ineffective against amastigotes”, the “Intracellular burdens (amastigotes/100 Mφ) after treatment, Li” value ([1]; 10 µM) was “did not show any reduction” and the “Antileishmanial activity” value ([1]; 10 µM, listed as DhiS-A) was “did not show any antiproliferative activity”. The “Mφ infection (%), Li” value ([1]; treated with 10 µM, nontreated 50.67 ± 4.62%) was 45.67 ± 7.51%, the “Intracellular burdens (amastigotes/100 Mφ) after treatment, Ld” value ([2]; 10 µM) was “did not show any reduction” and the “Mφ infection (%), Ld” value ([2]; treated with 10 µM, nontreated 69.67 ± 8.50%) was 67.0 ± 6.08%. For the same compound, the inhibition of growth at 120 µM (Li UCM9 promastigotes; Leishmania infantum, 24 h) was 38.3 ± 4.96%, the IC50 (Li UCM9 promastigotes; Leishmania infantum, approximate, dose-response curve, 24 h) was roughly 90.2 µM and the Emax (Li UCM9 promastigotes; Leishmania infantum, exploratory screening, 0.94 µM up to 120 µM, read-out: Maximal effect (inhibition of growth of control cultures) on Li promastigotes) was less than 50%. The “Inhibition of Li promastigote multiplication reached in dose-response curve” value (Li UCM9 promastigotes; maximal concentration used 480/600 µM) was “complete inhibition”, the IC50 [3] was roughly 30 µM and the inhibition of growth at 120 µM (Ld promastigotes) was 87.6 ± 2.82%. The IC50 (Ld promastigotes; approximate, dose-response curve) was roughly 90.2 µM, the “DRI of DhiS-A in combination with AmB” value (Li promastigotes; ED10) was 0.88 and the “Dose Required of DhiS-A in combination with AmB” value (“Dose Required … with AmB” for short) (Li promastigotes; ED10) was 34.79 µM. For the same compound, the “DRI of DhiS-A in combination with AmB” value (Li promastigotes; ED25) was 1.13, the “Dose Required … with AmB” value (Li promastigotes; ED25) was 44.61 µM and the “DRI of DhiS-A in combination with AmB” value (Li promastigotes; ED50) was 1.47. The “Dose Required … with AmB” value (Li promastigotes; ED50) was 57.21 µM, the “DRI of DhiS-A in combination with PMM” value (Li promastigotes; ED50) was 0.51 and the “Dose Required of DhiS-A in combination with PMM” value (shortened to “Dose Required … with PMM”) (Li promastigotes; ED50) was 164 µM. The “DRI of DhiS-A in combination with Sb^III” value (Li promastigotes; ED50) was 1.50, the “Dose Required of DhiS-A in combination with Sb^III” value (“Dose Required … with Sb^III” below) (Li promastigotes; ED50) was 56 µM and the “DRI of DhiS-A in combination with AmB” value (Li promastigotes; ED75) was 1.90. For the same compound, the “Dose Required … with AmB” value (Li promastigotes; ED75) was 73.36 µM, the “DRI of DhiS-A in combination with PMM” value (Li promastigotes; ED75) was 0.60 and the “Dose Required … with PMM” value (Li promastigotes; ED75) was 229 µM. The “DRI of DhiS-A in combination with Sb^III” value (Li promastigotes; ED75) was 0.99, the “Dose Required … with Sb^III” value (Li promastigotes; ED75) was 141.12 µM and the “DRI of DhiS-A in combination with AmB” value (Li promastigotes; ED90) was 2.91. The “Dose Required … with AmB” value (Li promastigotes; ED90) was 94.08 µM, the “DRI of DhiS-A in combination with PMM” value (Li promastigotes; ED90) was 0.72 and the “Dose Required … with PMM” value (Li promastigotes; ED90) was 318 µM. For the same compound, the “DRI of DhiS-A in combination with Sb^III” value (Li promastigotes; ED90) was 0.65, the “Dose Required … with Sb^III” value (Li promastigotes; ED90) was 355.63 µM and the “DRI of DhiS-A in combination with AmB” value (Li promastigotes; ED95) was 4.28. The “Dose Required … with AmB” value (Li promastigotes; ED95) was 111.42 µM, the “DRI of DhiS-A in combination with PMM” value (Li promastigotes; ED95) was 0.81 and the “Dose Required … with PMM” value (Li promastigotes; ED95) was 399 µM. The “DRI of DhiS-A in combination with Sb^III” value (Li promastigotes; ED95) was 0.49 and the “Dose Required … with Sb^III” value (Li promastigotes; ED95) was 666.84 µM.

For `COc1cc(C2Oc3cc([C@H]4Oc5cc(O)cc(O)c5C(=O)[C@@H]4O)ccc3OC2CO)ccc1O` (stereo partly drawn) [Silybin AB, silybin AB], the “Antileishmanial activity” value ([1]; 10 µM) is listed as “no antileishmanial activity was found”, the “Inhibition of the multiplication of amastigotes of L. major” value (amastigotes of L. major) is listed as 53% and the inhibition of growth at 120 µM (Li UCM9 promastigotes; Leishmania infantum, 24 h) is listed as 5.4 ± 2.02%. The “Inhibition on Li promastigotes (in words)” value (Li UCM9 promastigotes; exploratory screening, 0.94 µM up to 120 µM) was “neither silymarin nor the main component, silybin, elicited any inhibition” and the inhibition of growth at 120 µM (Ld promastigotes) was 37 ± 3.91%.

In the case of “antimoniate of N-methyl glucamine [Sb^V, reference compound]”, the “Reduction of the multiplication of L. major promastigotes” value (L. major promastigotes) is given as “ca. 70%” and the “Sensitivity of Li promastigotes (in words)” value (Li UCM9 promastigotes; dose-response 3.75-480 µM) is given as “insensitive”.
